Assay results: the supplement of paper PMC10307832

Legend:
Assay in all cases: relative viability (nuclei count vs DMSO), 5 days (fraction); higher = more cells survive
[1] = compound: CC1=CC(=NN1)NC2=CC(=NC(=N2)/C=C/C3=CC=CC=C3)N4CCN(CC4)C + Cc1cc(Nc2cc(N3CCN(C)CC3)nc(Sc3ccc(NC(=O)C4CC4)cc3)n2)n[nH]1 [Tozasertib] (partner 0.1 µM)
Summary of the method: (§1)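 Relative viability was taken as the ratio of nuclei in treated wells to nuclei in vehicle wells. Lung cancer cell lines in 1536-well plates received compounds by pin tool one day after seeding, either one drug alone or a fixed anchor-drug dose plus five library-drug doses (not always all listed) in √10 steps. Nuclei were counted on 4× images after 5 days of treatment, and values are medians of duplicate plates.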

Obatoclax + Dasatinib = compound: COC1=CC(c2cc3ccccc3[nH]2)=N/C1=C\c1[nH]c(C)cc1C [Obatoclax] + Cc1nc(Nc2ncc(C(=O)Nc3c(C)cccc3Cl)s2)cc(N2CCN(CCO)CC2)n1 [Dasatinib] (partner 0.075 µM)
Summary of the method: as §1

Bortezomib + Pemetrexed = compound: CC(C)C[C@H](NC(=O)[C@H](Cc1ccccc1)NC(=O)c1cnccn1)B(O)O [Bortezomib] + Nc1nc2[nH]cc(CCc3ccc(C(=O)N[C@@H](CCC(=O)O)C(=O)O)cc3)c2c(=O)[nH]1 [Pemetrexed] (partner 0.2 µM)
Summary of the method: as §1

[2] = compound: CC1=CC(=NN1)NC2=CC(=NC(=N2)/C=C/C3=CC=CC=C3)N4CCN(CC4)C + Nc1nc2[nH]cc(CCc3ccc(C(=O)N[C@@H](CCC(=O)O)C(=O)O)cc3)c2c(=O)[nH]1 [Pemetrexed] (partner 0.2 µM)
Summary of the method: as §1

Cell Line | relative viability ([1]; first compound 0.08 µM) | relative viability ([1]; first compound 0.253 µM) | relative viability ([1]; first compound 0.8 µM) | relative viability ([1]; first compound 2.53 µM) | relative viability ([1]; first compound 8 µM) | relative viability (Obatoclax + Dasatinib; first compound 0.01 µM) | relative viability (Obatoclax + Dasatinib; first compound 0.03162 µM) | relative viability (Obatoclax + Dasatinib; first compound 0.1 µM) | relative viability (Obatoclax + Dasatinib; first compound 0.3162 µM) | relative viability (Obatoclax + Dasatinib; first compound 1 µM) | relative viability (Bortezomib + Pemetrexed; first compound 0.0002 µM) | relative viability (Bortezomib + Pemetrexed; first compound 0.000632 µM) | relative viability (Bortezomib + Pemetrexed; first compound 0.002 µM) | relative viability (Bortezomib + Pemetrexed; first compound 0.006325 µM) | relative viability (Bortezomib + Pemetrexed; first compound 0.02 µM) | relative viability ([2]; first compound 0.08 µM) | relative viability ([2]; first compound 0.253 µM) | relative viability ([2]; first compound 0.8 µM) | relative viability ([2]; first compound 2.53 µM) | relative viability ([2]; first compound 8 µM)
NCI-H441 | 0.642 | 0.592 | 0.599 | 0.287 | 0.189 | 0.537 | 0.634 | 0.542 | 0.402 | 0.208 | 0.248 | 0.244 | 0.253 | 0.104 | 0.118 | 0.24 | 0.25 | 0.273 | 0.221 | 0.137
NCI-H460 | 0.371 | 0.394 | 0.313 | 0.0338 | 0.0166 | 0.497 | 0.385 | 0.384 | 0.343 | 0.21 | 0.0729 | 0.0627 | 0.0658 | 0.0625 | 0.0303 | 0.0607 | 0.0584 | 0.0607 | 0.0513 | 0.0228
NCI-H520 | 0.432 | 0.464 | 0.381 | 0.307 | 0.176 | 0.196 | 0.214 | 0.205 | 0.22 | 0.194 | 0.511 | 0.785 | 0.3 | 0.17 | 0.139 | 0.643 | 0.688 | 0.322 | 0.14 | 0.0969
NCI-H522 | 0.559 | 0.579 | 0.684 | 0.462 | 0.399 | 1.03 | 0.757 | 0.696 | 0.851 | 0.573 | 1.29 | 1.04 | 1.08 | 0.442 | 0.35 | 0.992 | 0.848 | 0.957 | 0.894 | 0.622
NCI-H596 | 0.783 | 1.01 | 0.896 | 0.508 | 0.244 | 0.618 | 0.475 | 0.464 | 0.502 | 0.394 | 0.487 | 0.488 | 0.45 | 0.268 | 0.221 | 0.468 | 0.5 | 0.456 | 0.408 | 0.228
NCI-H647 | 0.236 | 0.202 | 0.257 | 0.123 | 0.108 | 0.258 | 0.164 | 0.149 | 0.0862 | 0.0719 | 0.17 | 0.199 | 0.134 | 0.0326 | 0.0194 | 0.2 | 0.174 | 0.168 | 0.0748 | 0.0585
NCI-H661 | 0.321 | 0.344 | 0.339 | 0.382 | 0.394 | 0.875 | 0.846 | 0.427 | 0.762 | 0.4 | 0.887 | 0.89 | 0.88 | 0.594 | 0.23 | 0.884 | 0.898 | 0.855 | 0.576 | 0.326
NCI-H838 | 0.296 | 0.287 | 0.271 | 0.211 | 0.119 | 0.298 | 0.25 | – | 0.277 | 0.226 | 0.252 | 0.231 | 0.264 | 0.161 | 0.161 | 0.235 | 0.25 | 0.213 | 0.166 | 0.111
NCI-H1355 | 0.536 | 0.502 | 0.511 | 0.173 | 0.129 | 0.836 | 0.675 | 0.538 | 0.68 | 0.535 | 1.02 | 0.97 | 1.06 | 0.711 | 0.13 | 1.04 | 1.01 | 1.01 | 0.902 | 0.546
NCI-H1395 | 0.76 | 0.751 | 0.566 | 0.496 | 0.315 | 0.417 | 0.416 | 0.399 | 0.412 | 0.432 | 0.77 | 0.767 | 0.579 | 0.26 | 0.264 | 0.875 | 0.814 | 0.714 | 0.357 | 0.233
NCI-H1437 | 0.422 | 0.462 | 0.424 | 0.344 | 0.201 | 0.559 | 0.295 | 0.384 | 0.355 | 0.445 | 0.284 | 0.301 | 0.351 | 0.172 | 0.157 | 0.422 | 0.325 | 0.295 | 0.212 | 0.162
NCI-H1650 | 0.384 | 0.384 | 0.373 | 0.187 | 0.169 | 0.304 | 0.329 | 0.396 | 0.271 | 0.179 | 0.403 | 0.335 | 0.141 | 0.13 | 0.186 | 0.37 | 0.373 | 0.379 | 0.268 | 0.146
NCI-H1651 | 0.678 | 0.658 | 0.661 | 0.296 | 0.177 | 0.563 | 0.376 | 0.372 | 0.293 | 0.187 | 0.603 | 0.618 | 0.565 | 0.594 | 0.362 | 0.39 | 0.58 | 0.571 | 0.518 | 0.223
NCI-H1666 | 0.559 | 0.549 | 0.554 | 0.336 | 0.298 | 0.819 | 0.809 | 0.727 | 0.496 | 0.418 | 0.816 | 0.872 | 0.858 | 0.579 | 0.443 | 0.735 | 0.914 | 0.839 | 0.846 | 0.792
NCI-H1734 | 0.256 | 0.238 | 0.239 | 0.227 | 0.157 | 0.493 | 0.287 | 0.427 | 0.375 | 0.2 | 0.419 | 0.407 | 0.451 | 0.178 | 0.114 | 0.409 | 0.384 | 0.409 | 0.238 | 0.199
